Assay: recombinant UMI read abundance after kanamycin selection (control-corrected) (log10(CPM+1)); higher = more efficient recombination; extreme values may be limits of the assay; sequences stand for … in AGTGCAGAGAAAATCGGCCAGTTTTCTCTGCCTGCAGTCCGCATGCCGTGGGACCCCTTGGGTTCTAACCTGTTGCCTAGATTTATGCAGCGGACTGCCTTTCTCCCAAAGTGATAAACCGG…AGGTTGGTTTCACT; site = the 11-nt donor
In short: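 Sequencing read counts were converted to CPM, averaged over two replicates and scaled by control-derived factors. Results are given as log10(CPM+1). The reads covered the donor–target junction of recombinant UMIs from a pooled Escherichia coli screen of donor and donor-binding-loop pairs for the IS621 bridge recombinase.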
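Also: IS621 bridge recombinase in Escherichia coli cells against a fixed T5 target plasmid.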

| Sequence | recombinant UMI read abundance (log10) |
| --- | --- |
| CCCTAGCCATGGACCGGTTTTCCCGGTAATCCGTATTTGAC (site CCCTAGCCTGG) | 0 |
| CCCTAGCCATGGACCGGTTTTCCCGGTAATCCGTATTTGAC (site CCCTAGCCTGT) | 0 |
| CCCTAGCCATGGACCGGTTTTCCCGGTAATCCGTATTTGCA (site CCCTAGCCTAG) | 0 |
| CCCTAGCCATGGACCGGTTTTCCCGGTAATCCGTATTTGCA (site CCCTAGCCTCG) | 0 |
| CCCTAGCCATGGACCGGTTTTCCCGGTAATCCGTATTTGCA (site CCCTAGCCTGG) | 0 |
| CCCTAGCCATGGACCGGTTTTCCCGGTAATCCGTATTTGCA (site CCCTAGCCTTG) | 0 |
| CCCTAGCCATGGACCGGTTTTCCCGGTAATCCGTATTTGCG (site CCCTAGCCTAG) | 0 |
| CCCTAGCCATGGACCGGTTTTCCCGGTAATCCGTATTTGCG (site CCCTAGCCTCG) | 0.0131 |
| CCCTAGCCATGGACCGGTTTTCCCGGTAATCCGTATTTGCG (site CCCTAGCCTGG) | 0 |
| CCCTAGCCATGGACCGGTTTTCCCGGTAATCCGTATTTGCG (site CCCTAGCCTTG) | 0 |
| CCCTAGCCATGGACCGGTTTTCCCGGTAATCCGTATTTGCT (site CCCTAGCCTAG) | 0 |
| CCCTAGCCATGGACCGGTTTTCCCGGTAATCCGTATTTGCT (site CCCTAGCCTCG) | 0 |
| CCCTAGCCATGGACCGGTTTTCCCGGTAATCCGTATTTGCT (site CCCTAGCCTGG) | 0 |
| CCCTAGCCATGGACCGGTTTTCCCGGTAATCCGTATTTGCT (site CCCTAGCCTTG) | 0 |
| CCCTCAACATGGACCGGTTTTCCCGGTAATCCGTATTTGAT (site CCCTCAACTAT) | 0.00694 |
| CCCTCAACATGGACCGGTTTTCCCGGTAATCCGTATTTGGG (site CCCTCAACTCC) | 0.0112 |
| CCCTCCTCATGGACCGGTTTTCCCGGTAATCCGTATTTGAG (site CCCTCCTCTCT) | 0.256 |
| CCCTCCTCATGGACCGGTTTTCCCGGTAATCCGTATTTGGG (site CCCTACTCTCC) | 0.0129 |
| CCCTCCTCATGGACCGGTTTTCCCGGTAATCCGTATTTGGG (site CCCTCCTCTCC) | 0.487 |
| CCCTCCTCATGGACCGGTTTTCCCGGTAATCCGTATTTGGG (site CCCTGCTCTCC) | 0 |
| CCCTCCTCATGGACCGGTTTTCCCGGTAATCCGTATTTGGG (site CCCTTCTCTCC) | 0.00367 |
| CCCTGATCATGGACCGGTTTTCCCGGTAATCCGTATTTGAG (site CCCTGATCTCT) | 0.248 |
| CCCTTATCATGGACCGGTTTTCCCGGTAATCCGTATTTGGG (site CCCTTATCTCC) | 0.162 |
| CCCTTATCATGGACCGGTTTTCCCGGTAATCCGTATTTGGG (site CCCTTCTCTCC) | 0.0199 |
| CCCTTATCATGGACCGGTTTTCCCGGTAATCCGTATTTGGG (site CCCTTGTCTCC) | 0.0199 |

| Sequence | recombinant UMI read abundance (log10) |
| --- | --- |
| CCCTTATCATGGACCGGTTTTCCCGGTAATCCGTATTTGGG (site CCCTTTTCTCC) | 0 |
| CCCTTCTCATGGACCGGTTTTCCCGGTAATCCGTATTTGGT (site CCCTTCTCTAC) | 1.32 |
| CCCTTCTCATGGACCGGTTTTCCCGGTAATCCGTATTTGGT (site CCCTTCTCTCC) | 0.182 |
| CCCTTCTCATGGACCGGTTTTCCCGGTAATCCGTATTTGGT (site CCCTTCTCTGC) | 0 |
| CCCTTCTCATGGACCGGTTTTCCCGGTAATCCGTATTTGGT (site CCCTTCTCTTC) | 0.121 |
| CCCTTGGCATGGACCGGTTTTCCCGGTAATCCGTATTTGGA (site CACTTGGCTTC) | 0.0394 |
| CCCTTGGCATGGACCGGTTTTCCCGGTAATCCGTATTTGGA (site CCCTTGGCTTC) | 0.107 |
| CCCTTGGCATGGACCGGTTTTCCCGGTAATCCGTATTTGGA (site CGCTTGGCTTC) | 0.0127 |
| CCCTTGGCATGGACCGGTTTTCCCGGTAATCCGTATTTGGA (site CTCTTGGCTTC) | 0.00833 |
| CCGAAAACATGGACCGGTTTTCCCGGTAATCCGTATTTGCT (site ACGAAAACTAG) | 0 |
| CCGAAAACATGGACCGGTTTTCCCGGTAATCCGTATTTGCT (site CCGAAAACTAG) | 0.973 |
| CCGAAAACATGGACCGGTTTTCCCGGTAATCCGTATTTGCT (site GCGAAAACTAG) | 0 |
| CCGAAAACATGGACCGGTTTTCCCGGTAATCCGTATTTGCT (site TCGAAAACTAG) | 0 |
| CCGAAACCATGGACCGGTTTTCCCGGTAATCCGTATTTGCG (site CCGAAACCTCG) | 0 |
| CCGAATCCATGGACCGGTTTTCCCGGTAATCCGTATTTGTT (site CAGAATCCTAA) | 0 |
| CCGAATCCATGGACCGGTTTTCCCGGTAATCCGTATTTGTT (site CCGAATCCTAA) | 0.251 |
| CCGAATCCATGGACCGGTTTTCCCGGTAATCCGTATTTGTT (site CGGAATCCTAA) | 0 |
| CCGAATCCATGGACCGGTTTTCCCGGTAATCCGTATTTGTT (site CTGAATCCTAA) | 0.00536 |
| CCGACCGCATGGACCGGTTTTCCCGGTAATCCGTATTTGTA (site CCGACCGCTTA) | 0.904 |
| CCGAGTCCATGGACCGGTTTTCCCGGTAATCCGTATTTGAA (site CCGAGTCCTTT) | 0.417 |
| CCGATTACATGGACCGGTTTTCCCGGTAATCCGTATTTGCT (site CCGATTACTAG) | 0.743 |
| CCGATTACATGGACCGGTTTTCCCGGTAATCCGTATTTGCT (site CCGCTTACTAG) | 0 |
| CCGATTACATGGACCGGTTTTCCCGGTAATCCGTATTTGCT (site CCGGTTACTAG) | 0 |
| CCGATTACATGGACCGGTTTTCCCGGTAATCCGTATTTGCT (site CCGTTTACTAG) | 0 |
| CCGCCACCATGGACCGGTTTTCCCGGTAATCCGTATTTGAT (site CCGCCACCTAT) | 0.00762 |

| Sequence | recombinant UMI read abundance (log10) |
| --- | --- |
| CCGCCGACATGGACCGGTTTTCCCGGTAATCCGTATTTGTT (site CCGCCGACTAA) | 0.275 |
| CCGCTACCATGGACCGGTTTTCCCGGTAATCCGTATTTGCT (site CAGCTACCTAG) | 0 |
| CCGCTACCATGGACCGGTTTTCCCGGTAATCCGTATTTGCT (site CCGCTACCTAG) | 0 |
| CCGCTACCATGGACCGGTTTTCCCGGTAATCCGTATTTGCT (site CGGCTACCTAG) | 0 |
| CCGCTACCATGGACCGGTTTTCCCGGTAATCCGTATTTGCT (site CTGCTACCTAG) | 0.00224 |
| CCGCTAGCATGGACCGGTTTTCCCGGTAATCCGTATTTGTG (site CCGATAGCTCA) | 0.0148 |
| CCGCTAGCATGGACCGGTTTTCCCGGTAATCCGTATTTGTG (site CCGCTAGCTCA) | 0.337 |
| CCGCTAGCATGGACCGGTTTTCCCGGTAATCCGTATTTGTG (site CCGGTAGCTCA) | 0.0182 |
| CCGCTAGCATGGACCGGTTTTCCCGGTAATCCGTATTTGTG (site CCGTTAGCTCA) | 0 |
| CCGCTTACATGGACCGGTTTTCCCGGTAATCCGTATTTGCT (site CCGATTACTAG) | 0 |
| CCGCTTACATGGACCGGTTTTCCCGGTAATCCGTATTTGCT (site CCGCTTACTAG) | 1.48 |
| CCGCTTACATGGACCGGTTTTCCCGGTAATCCGTATTTGCT (site CCGGTTACTAG) | 0 |
| CCGCTTACATGGACCGGTTTTCCCGGTAATCCGTATTTGCT (site CCGTTTACTAG) | 0 |
| CCGCTTCCATGGACCGGTTTTCCCGGTAATCCGTATTTGTC (site CCGCTTCCTGA) | 0 |
| CCGCTTTCATGGACCGGTTTTCCCGGTAATCCGTATTTGAG (site CCGCTTTCTCT) | 0.19 |
| CCGGAAACATGGACCGGTTTTCCCGGTAATCCGTATTTGTT (site CCGGAAACTAA) | 1.15 |
| CCGGATCCATGGACCGGTTTTCCCGGTAATCCGTATTTGTT (site CCGGATCCTAA) | 0.556 |
| CCGGATCCATGGACCGGTTTTCCCGGTAATCCGTATTTGTT (site CGGAATCCTAA) | 0.00344 |
| CCGGCTACATGGACCGGTTTTCCCGGTAATCCGTATTTGAT (site CCGGCTACTAT) | 1.37 |
| CCGGGGCCATGGACCGGTTTTCCCGGTAATCCGTATTTGAT (site CCGGGGCCTAT) | 0.04 |
| CCGGGTGCATGGACCGGTTTTCCCGGTAATCCGTATTTGAT (site CCAGGTGCTAT) | 1.63 |
| CCGGGTGCATGGACCGGTTTTCCCGGTAATCCGTATTTGAT (site CCCGGTGCTAT) | 0.797 |
| CCGGGTGCATGGACCGGTTTTCCCGGTAATCCGTATTTGAT (site CCGGGTGCTAT) | 1.25 |
| CCGGGTGCATGGACCGGTTTTCCCGGTAATCCGTATTTGAT (site CCTGGTGCTAT) | 0.428 |
| CCGGGTTCATGGACCGGTTTTCCCGGTAATCCGTATTTGGC (site CCGGGTTCTGC) | 1.57 |

Reference: the supplement of paper PMC11208160
